The results in this text go back to patent EP0774249A2, “Topical composition containing specific flavanones” (UNILEVER PLC, priority 1995, dated 1997).

The data set relates to Human Epidermal Keratinocytes. Kind of data set: Transglutaminase (TG-1) assay, ELISA on cultured keratinocytes. It is filed as cell-based. The conditions noted are these: for Effects on Differentiation (TG-1): after 72 hour incubation; for TG-1 production DAY 2 / TG-1 production DAY 3 / TG-1 production DAY 1: absorbance OD 490nm; for TG-1 production DAY 2: control 0.134 (Exp. 1), 0.152 (Exp. 2), 0.174 (Exp. 3); for TG-1 production DAY 3: control 0.143 (Exp. 1), 0.200 (Exp. 2), 0.218 (Exp. 3); for TG-1 production DAY 1: control 0.154 (Exp. 1), 0.179 (Exp. 2), 0.181 (Exp. 3); for stimulation of differentiation (TG-1 production) against the control: 10, 25, 50 µg/mL, days 1 to 3 (Table 2); for activity at 10 µg/mL / activity at 25 µg/mL / activity at 50 µg/mL: Homo sapiens, Keratinocyte; for TG-1 expressed on Day 1: single flavanone; for TG-1 Expressed Day 1 / TG-1 Expressed Day 2: concentrations not given.

Where [1] appears, read: 24 h, 10 µg/mL, read-out: DAY 1 (% over control) (converted).
Setting [2] is: 24 h, 25 µg/mL, read-out: DAY 1 (% over control) (converted).
Where [3] appears, read: 24 h, 50 µg/mL, read-out: DAY 1 (% over control) (converted).
[4] abbreviates: 48 h, 10 µg/mL, read-out: DAY 2 (% over control) (converted).
Where [5] appears, read: 48 h, 25 µg/mL, read-out: DAY 2 (% over control) (converted).
[6] abbreviates: 48 h, 50 µg/mL, read-out: DAY 2 (% over control) (converted).
Setting [7] is: 72 h, 10 µg/mL, read-out: DAY 3 (% over control) (converted).
Where [8] appears, read: 72 h, 25 µg/mL, read-out: DAY 3 (% over control) (converted).
The mark [9] stands for this setting: 72 h, 50 µg/mL, read-out: DAY 3 (% over control) (converted).
Setting [10] is: 5μg/mL, control 0.17 (Exp. 1), 0.19 (Exp. 3).
Setting [11] is: 10μg/mL, control 0.17 (Exp. 1), 0.19 (Exp. 3).
Setting [12] is: Experiment 1, control 0.17 ± 0.01.
The mark [13] stands for this setting: Experiment 1, control 0.21 ± 0.02.
[14] abbreviates: Experiment 2, control 0.16 ± 0.01.
The mark [15] stands for this setting: Experiment 2, control 0.20 ± 0.01.

The structures appear in SMILES notation. “Also recorded” adds a separate entry of the source. Read-outs that look alike come from different tables or passages of the source.

Turning to `O=c1ccc2ccccc2o1` [Coumarin, reference compound], the “Effects on Differentiation (TG-1)” value (5 and 15 µg/ml) is recorded as “No effect”.

With `O=c1c(-c2ccc(O)cc2)coc2cc(O)ccc12` [Daidzein, reference compound], under “5 and 15 µg/ml”, the “stimulation or inhibition of differentiation processes, time course study” value is “no effects” and the “Effects on Differentiation (TG-1)” value is “No effect”. For the setting “5 and 15 µg/ml, observation of the cultures”, the “morphology of the cells / cytotoxic effect on keratinocytes” value is “no morphological changes”.

On to `O=c1c(O)c(-c2ccc(O)c(O)c2)oc2cc(O)cc(O)c12` [Quercetin, reference compound], for which, for the setting “5 and 15 µg/ml”, the “Effects on Differentiation (TG-1)” value is on record as “No effect”.

Consider `O=c1c(O)c(-c2ccc(O)c(O)c2)oc2cc(O)ccc12` [Fisetin, reference compound], for which the “Effects on Differentiation (TG-1)” value (5 and 15 µg/ml) was “No effect”.

For the compound `O=C1c2c(O)cc(O)cc2O[C@H](c2ccc(O)c(O)c2)[C@H]1O` [Taxifolin], the “stimulation of differentiation (TG-1 production) against the control” value (“stimulation of differentiation” for short) is reported as “stimulated differentiation to the same extent or higher than the control”. Further, under “10 µg/mL”, the “TG-1 production DAY 2” value is given as 0.204 ± 0.04, the “TG-1 production DAY 3” value turned out to be 0.231 ± 0.03 and the “TG-1 production DAY 1” value came out at 0.153 ± 0.02. Also, where the note is “25 µg/mL”, the “TG-1 production DAY 2” value is 0.212 ± 0.03, the “TG-1 production DAY 3” value was determined as 0.226 ± 0.02 and the “TG-1 production DAY 1” value stood at 0.175 ± 0.04. Under “50 µg/mL”, the “TG-1 production DAY 2” value was determined as 0.159 ± 0.01, the “TG-1 production DAY 3” value amounted to 0.199 ± 0.04 and the “TG-1 production DAY 1” value amounted to 0.150 ± 0.02. Moreover, the “Effects on Differentiation (TG-1)” value (5 and 15 µg/ml) was “Increase TG-1”. In addition, the “Effects on Differentiation (TG-1)” value (5 and 15 µg/ml, listed as taxifolin) is on record as “stimulated TG-1 production”. Moreover, under setting [1], the activity at 10 µg/mL is 85%. For the same compound, under setting [2], the activity at 25 µg/mL was 97%. The activity at 50 µg/mL under setting [3] was 84%. Further, under setting [4], the activity at 10 µg/mL is 117%. Besides, the activity at 25 µg/mL under setting [5] was 122%. Also, the activity at 50 µg/mL under setting [6] is 92%. Besides, the activity at 10 µg/mL under setting [7] is 106%. Also, the activity at 25 µg/mL under setting [8] was 104%. The activity at 50 µg/mL under setting [9] is 92%.

For the compound `COc1ccc(C2CC(=O)c3c(O)cc(O)cc3O2)cc1O` (centres unmarked) [Hesperetin], the “stimulation of differentiation” value is given as “stimulated differentiation to the same extent or higher than the control”. Moreover, the “TG-1 expressed on Day 1” value under setting [10] is reported as 0.19 ± 0.01 ^1. Also, the “TG-1 expressed on Day 1” value under setting [11] is given as 0.19 ± 0.02 ^1. In addition, under “10 µg/mL”, the “TG-1 production DAY 2” value was found to be 0.155 ± 0.01, the “TG-1 production DAY 3” value is reported as 0.190 ± 0.01 and the “TG-1 production DAY 1” value worked out at 0.142 ± 0.01. The “TG-1 expressed on Day 1” value (20μg/mL, control 0.19 (Exp. 2)) is listed as 0.20 ± 0.02. Further, under “25 µg/mL”, the “TG-1 production DAY 2” value was 0.167 ± 0.02, the “TG-1 production DAY 3” value is on record as 0.182 ± 0.01 and the “TG-1 production DAY 1” value is 0.148 ± 0.02. Further, the “TG-1 expressed on Day 1” value (40μg/mL, control 0.19 (Exp. 2)) was determined as 0.20 ± 0.01. Also, where the note is “50 µg/mL”, the “TG-1 production DAY 2” value was 0.213 ± 0.04, the “TG-1 production DAY 3” value amounted to 0.196 ± 0.01 and the “TG-1 production DAY 1” value was 0.154 ± 0.04. For the same compound, the “Effects on Differentiation (TG-1)” value (5 and 15 µg/ml) was “Increase TG-1”. Besides, for the setting “5 and 15 µg/ml, listed as hesperetin”, the “Effects on Differentiation (TG-1)” value was “effective keratinocyte pro-differentiating agents; also recorded: stimulated TG-1 production”. For the same compound, the “TG-1 Expressed Day 1” value under setting [12] is recorded as 0.14 ± 0.01^1. Also, the “TG-1 Expressed Day 2” value under setting [13] turned out to be 0.22 ± 0.02. Also, the “TG-1 Expressed Day 1” value under setting [14] is 0.15 ± 0.01^2. Also, the “TG-1 Expressed Day 2” value under setting [15] stood at 0.21 ± 0.02. Moreover, the activity at 10 µg/mL under setting [1] was 92%. Further, under setting [2], the activity at 25 µg/mL is 96%. In addition, the activity at 50 µg/mL under setting [3] is 100%. Also, under setting [4], the activity at 10 µg/mL was 116%. Besides, the activity at 25 µg/mL under setting [5] was 125%. The activity at 50 µg/mL under setting [6] was 159%. The activity at 10 µg/mL under setting [7] was 133%. Moreover, the activity at 25 µg/mL under setting [8] was 127%. Also, under setting [9], the activity at 50 µg/mL was 137%.

With `COc1ccc(-c2coc3cc(O)ccc3c2=O)cc1` [Formonoetin, reference compound], the “Effects on Differentiation (TG-1)” value (5 and 15 µg/ml) is on record as “No effect”.

With `COc1ccc([C@@H]2CC(=O)c3c(O)cc(O[C@@H]4O[C@H](CO[C@@H]5O[C@@H](C)[C@H](O)[C@@H](O)[C@H]5O)[C@@H](O)[C@H](O)[C@H]4O)cc3O2)cc1O` [Hesperidin, reference compound], the “Effects on Differentiation (TG-1)” value (5 and 15 µg/ml) is “No effect”.

As to `CCCCCCCCCCCCCCCCN(CC(O)CO)C(C)=O` (centres unmarked) [C2-Neoceramide (Formula F)], the “TG-1 Expressed Day 1” value under setting [14] amounted to 0.16 ± 0.01. In addition, the “TG-1 Expressed Day 2” value under setting [15] amounted to 0.21 ± 0.02.

For `CCCCCCCCCCCCC/C=C/C(O)C(CO)NC(C)=O` (centres unmarked) [C2-Ceramide (Formula A)], the “TG-1 Expressed Day 1” value under setting [12] was 0.15 ± 0.01^1. The “TG-1 Expressed Day 2” value under setting [13] is recorded as 0.23 ± 0.02^3.

`O=C1C[C@@H](c2ccc(O)cc2)Oc2cc(O)cc(O)c21` [Naringenin]: the “stimulation of differentiation” value is listed as “stimulated differentiation to the same extent or higher than the control”. In addition, the “TG-1 expressed on Day 1” value under setting [10] came to 0.19 ± 0.02. In addition, the “TG-1 expressed on Day 1” value under setting [11] is listed as 0.21 ± 0.01 ^5. In addition, under “10 µg/mL”, the “TG-1 production DAY 2” value turned out to be 0.149 ± 0.01, the “TG-1 production DAY 3” value is reported as 0.159 ± 0.01 and the “TG-1 production DAY 1” value came out at 0.147 ± 0.01. Also, where the note is “25 µg/mL”, the “TG-1 production DAY 2” value is on record as 0.200 ± 0.03, the “TG-1 production DAY 3” value is given as 0.171 ± 0.02 and the “TG-1 production DAY 1” value amounted to 0.207 ± 0.02. Further, for the setting “50 µg/mL”, the “TG-1 production DAY 2” value was 0.186 ± 0.01, the “TG-1 production DAY 3” value was 0.169 ± 0.01 and the “TG-1 production DAY 1” value is given as 0.156 ± 0.01. Further, where the note is “5 and 15 µg/ml”, the “Effects on Differentiation (TG-1)” value was “Increase TG-1”. Besides, where the note is “5 and 15 µg/ml, listed as naringenin”, the “Effects on Differentiation (TG-1)” value is reported as “effective keratinocyte pro-differentiating agents; also recorded: stimulated TG-1 production”. The activity at 10 µg/mL under setting [1] is 99%. Besides, under setting [2], the activity at 25 µg/mL is 134%. Besides, the activity at 50 µg/mL under setting [3] was 101%. Besides, the activity at 10 µg/mL under setting [4] is 111%. Further, under setting [5], the activity at 25 µg/mL was 149%. The activity at 50 µg/mL under setting [6] is 139%. The activity at 10 µg/mL under setting [7] is 111%. Also, under setting [8], the activity at 25 µg/mL was 120%. Besides, the activity at 50 µg/mL under setting [9] is 118%.

As for `Oc1cc(O)c2c(c1)O[C@H](c1ccc(O)c(O)c1)[C@H](O)C2` [Epicatechin, reference compound], the “Effects on Differentiation (TG-1)” value (5 and 15 µg/ml) is on record as “No effect”.

For `O=c1cc(-c2ccccc2)oc2cc(O)cc(O)c12` [Chrysin, reference compound], under “5 and 15 µg/ml”, the “Effects on Differentiation (TG-1)” value was “No effect”.

As to `O=C1CC(c2ccc(O)c(O)c2)Oc2cc(O)cc(O)c21` (centres unmarked) [Eriodictyol], the “stimulation of differentiation” value is listed as “stimulated differentiation to the same extent or higher than the control”. For the setting “10 µg/mL”, the “TG-1 production DAY 2” value was found to be 0.194 ± 0.01, the “TG-1 production DAY 3” value came out at 0.264 ± 0.03 and the “TG-1 production DAY 1” value is on record as 0.178 ± 0.02. Besides, for the setting “25 µg/mL”, the “TG-1 production DAY 2” value was found to be 0.222 ± 0.05, the “TG-1 production DAY 3” value stood at 0.314 ± 0.07 and the “TG-1 production DAY 1” value came to 0.211 ± 0.04. Besides, for the setting “50 µg/mL”, the “TG-1 production DAY 2” value came out at 0.174 ± 0.02, the “TG-1 production DAY 3” value came out at 0.193 ± 0.05 and the “TG-1 production DAY 1” value came to 0.186 ± 0.02. The “Effects on Differentiation (TG-1)” value (5 and 15 µg/ml) is on record as “Increase TG-1”. Besides, the “Effects on Differentiation (TG-1)” value (5 and 15 µg/ml, listed as eriodictyol) was “stimulated TG-1 production”. For the same compound, the activity at 10 µg/mL under setting [1] is 99%. Under setting [2], the activity at 25 µg/mL was 118%. Also, the activity at 50 µg/mL under setting [3] is 104%. Under setting [4], the activity at 10 µg/mL is 128%. In addition, under setting [5], the activity at 25 µg/mL was 146%. Besides, under setting [6], the activity at 50 µg/mL was 115%. Further, under setting [7], the activity at 10 µg/mL is 132%. Also, the activity at 25 µg/mL under setting [8] is 157%. Moreover, under setting [9], the activity at 50 µg/mL is 97%.

For `CC1OC(OC2C(Oc3cc(O)c4c(c3)OC(c3ccc(O)cc3)CC4=O)OC(CO)C(O)C2O)C(O)C(O)C1O` (centres unmarked) [Naringin, reference compound], the “Effects on Differentiation (TG-1)” value is reported as “No effect” (5 and 15 µg/ml); “not an effective material for promoting the differentiation of keratinocytes” (5 and 15 µg/ml, listed as naringin).
